{"source": "patent US9913801B2", "about": "(YOUR ENERGY SYSTEMS, LLC, priority 2013, dated 2018)", "key": {"[1]": {"details": "rat liver, cited from earlier work"}, "[2]": {"system": "Mycobacterium tuberculosis", "details": "at 10 millimolar"}}, "note": "Read-outs that look alike come from different tables or passages of the source.", "data": [{"compound": "N[C@@H](CCC(=O)N[C@@H](CS)C(=O)NCC(=O)O)C(=O)O", "note": "[Plain glutathione, glutathione]", "values": [{"measurement": "removal of toxin", "setting": "[1]; intravenous", "value": 64, "unit": "%"}, {"measurement": "removal of toxin", "setting": "[1]; oral", "value": 0, "unit": "%"}]}, {"compound": "CC(=O)N[C@@H](CS)C(=O)O", "note": "[NAC, N-Acetyl Cysteine]", "values": [{"measurement": "Mycobacterium tuberculosis CFU/ml", "setting": "[2]", "value": "8,000 CFU/ml"}]}]}
